Measured values as given in patent publication US20130303575A1, “ADMINISTRATION OF AN INHIBITOR OF HDAC” (priority 2007, published 2013).

Assay: PK of SNDX-275 in patients with metastatic melanoma (Example 4)
Settings: human, in vivo; for Cmax: 7 mg
Description: The concentration after 8 hours after the dose was approximately 2 ng/mL.

## Nc1ccccc1NC(=O)c1ccc(CNC(=O)OCc2cccnc2)cc1 [SNDX-275, N-(2-aminophenyl) 4-[N-(pyrid-3-yl)methyloxycarbonylaminomethyl]benzamide]
Day 1 of cycle 1
  Cmax: 18.5 ng/mL
Day 1 of cycle 2
  Cmax: 23.3 ng/mL
7 mg dose, read-out: concentration 8 hours after the dose
  concentration at 8 h: ~2 ng/mL
